Data from ChEMBL document CHEMBL1201862, “PubChem BioAssay data set” (2004).
Blank lines part the entries; values can stand above or below the compound they belong to. Calls of active or inactive are those of the source.

Experiments:
[1] = viability of HCT116 lacking mutant beta-catenin – cell-based, human colon tumor, dose response (AID 1045); format: functional;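 note: HCT116 colon tumor cells with beta catenin knocked out; cells exposed to compound for 60 hours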
[2] = molecular target: Serine/threonine-protein kinase BRSK1 (Homo sapiens, UniProt Q8TDC3); format: functional;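 note: measured within a kinome-wide kinase panel, with the target listed as KIAA1811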
[3] = molecular target: Protein kinase C gamma type (Homo sapiens, UniProt P05129); format: functional
[4] = molecular target: Tyrosine-protein kinase Fyn (Homo sapiens, UniProt P06241); format: functional
Chain of Tyrosine-protein kinase Fyn (P06241 whole entry): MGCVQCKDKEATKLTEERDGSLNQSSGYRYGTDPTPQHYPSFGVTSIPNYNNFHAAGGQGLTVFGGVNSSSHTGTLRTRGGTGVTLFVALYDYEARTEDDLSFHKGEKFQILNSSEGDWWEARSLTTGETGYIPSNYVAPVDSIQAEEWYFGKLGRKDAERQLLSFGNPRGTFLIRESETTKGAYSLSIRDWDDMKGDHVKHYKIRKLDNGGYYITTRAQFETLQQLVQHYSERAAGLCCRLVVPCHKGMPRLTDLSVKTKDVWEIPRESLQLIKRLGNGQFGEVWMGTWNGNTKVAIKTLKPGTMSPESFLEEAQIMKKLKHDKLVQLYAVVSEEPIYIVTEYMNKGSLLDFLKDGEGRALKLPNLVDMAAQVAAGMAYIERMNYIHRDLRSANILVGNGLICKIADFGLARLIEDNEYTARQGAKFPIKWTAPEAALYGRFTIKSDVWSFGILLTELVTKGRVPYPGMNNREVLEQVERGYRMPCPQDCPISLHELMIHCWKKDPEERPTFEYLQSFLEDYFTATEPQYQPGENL

[5] = molecular target: Tyrosine-protein kinase ITK/TSK (Homo sapiens, UniProt Q08881); format: functional;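 note: affinity for ITK measured as one member of a broad kinase panel profiling binding across the kinome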
[6] = molecular target: cGMP-dependent protein kinase 1 (Homo sapiens, UniProt Q13976); format: functional;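 note: value from a kinome panel screen with PRKG1 as the panel member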
Chain of cGMP-dependent protein kinase 1 (Q13976 whole entry): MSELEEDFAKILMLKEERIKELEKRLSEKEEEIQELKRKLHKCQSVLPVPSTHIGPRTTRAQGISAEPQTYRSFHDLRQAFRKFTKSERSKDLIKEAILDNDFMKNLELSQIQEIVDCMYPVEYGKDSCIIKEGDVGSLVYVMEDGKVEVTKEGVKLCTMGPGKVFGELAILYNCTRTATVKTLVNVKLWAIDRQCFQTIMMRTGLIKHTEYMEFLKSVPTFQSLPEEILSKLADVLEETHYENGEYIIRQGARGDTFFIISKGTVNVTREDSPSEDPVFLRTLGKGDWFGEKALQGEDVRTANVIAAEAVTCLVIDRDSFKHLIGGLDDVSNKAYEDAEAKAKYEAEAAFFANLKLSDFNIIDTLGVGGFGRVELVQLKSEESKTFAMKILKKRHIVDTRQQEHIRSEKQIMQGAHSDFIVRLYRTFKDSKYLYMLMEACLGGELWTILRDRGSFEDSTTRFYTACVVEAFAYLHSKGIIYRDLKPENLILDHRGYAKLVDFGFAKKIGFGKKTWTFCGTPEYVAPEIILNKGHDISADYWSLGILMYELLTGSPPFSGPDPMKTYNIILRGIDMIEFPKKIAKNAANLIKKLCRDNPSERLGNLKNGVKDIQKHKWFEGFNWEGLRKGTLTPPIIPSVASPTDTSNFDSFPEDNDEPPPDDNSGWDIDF

[7] = molecular target: Homeodomain-interacting protein kinase 4 (Homo sapiens, UniProt Q8NE63); format: functional
Chain of Homeodomain-interacting protein kinase 4 (Q8NE63 whole entry, canonical isoform): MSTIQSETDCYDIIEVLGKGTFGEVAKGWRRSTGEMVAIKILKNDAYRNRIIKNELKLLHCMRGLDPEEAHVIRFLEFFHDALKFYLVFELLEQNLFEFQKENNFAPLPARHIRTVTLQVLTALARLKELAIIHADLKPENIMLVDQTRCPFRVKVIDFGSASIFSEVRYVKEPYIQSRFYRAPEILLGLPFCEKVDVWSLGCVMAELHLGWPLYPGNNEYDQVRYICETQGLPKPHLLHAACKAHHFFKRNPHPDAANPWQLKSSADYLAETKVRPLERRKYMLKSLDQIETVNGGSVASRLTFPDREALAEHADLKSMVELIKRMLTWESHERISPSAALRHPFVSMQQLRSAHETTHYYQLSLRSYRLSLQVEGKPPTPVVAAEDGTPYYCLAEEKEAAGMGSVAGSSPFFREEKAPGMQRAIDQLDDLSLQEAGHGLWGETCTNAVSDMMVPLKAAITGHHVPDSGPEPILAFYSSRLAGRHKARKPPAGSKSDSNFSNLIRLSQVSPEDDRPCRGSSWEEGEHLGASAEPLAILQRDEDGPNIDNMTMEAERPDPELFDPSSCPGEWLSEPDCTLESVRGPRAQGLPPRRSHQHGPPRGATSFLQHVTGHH

[8] = molecular target: Phosphorylase b kinase gamma catalytic chain, liver/testis isoform (Homo sapiens, UniProt P15735); format: functional;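 note: PHKG2 measured as one member of a kinome-wide kinase panel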
[9] = molecular target: Cyclin-dependent kinase 1 (Homo sapiens, UniProt P06493); format: functional;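 note: Kinome-wide panel profiling, with the target listed as panel member CDC2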
[10] = molecular target: T1, Serine/threonine-protein kinase Chk1 (Homo sapiens, UniProt O14757); format: functional;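 note: measured as one member of a kinome-wide kinase profiling panel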
T1 sequence (O14757 whole entry): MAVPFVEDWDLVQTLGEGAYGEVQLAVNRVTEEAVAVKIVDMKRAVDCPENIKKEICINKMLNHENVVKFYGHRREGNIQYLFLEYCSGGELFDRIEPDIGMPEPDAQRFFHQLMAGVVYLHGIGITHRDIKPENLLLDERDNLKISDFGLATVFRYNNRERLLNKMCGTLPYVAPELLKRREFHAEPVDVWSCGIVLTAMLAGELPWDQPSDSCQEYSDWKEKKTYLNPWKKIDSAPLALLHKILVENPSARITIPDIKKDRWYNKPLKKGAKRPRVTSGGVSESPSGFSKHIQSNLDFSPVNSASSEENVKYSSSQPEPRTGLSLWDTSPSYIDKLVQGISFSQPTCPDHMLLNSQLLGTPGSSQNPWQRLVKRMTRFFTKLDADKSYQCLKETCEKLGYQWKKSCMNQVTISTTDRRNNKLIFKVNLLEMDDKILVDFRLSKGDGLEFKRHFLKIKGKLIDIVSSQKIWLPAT

[11] = molecular target: Cell division cycle 7-related protein kinase (Homo sapiens, UniProt O00311); format: functional;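 note: value obtained from a kinome-wide kinase panel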
Chain of Cell division cycle 7-related protein kinase (O00311 whole entry): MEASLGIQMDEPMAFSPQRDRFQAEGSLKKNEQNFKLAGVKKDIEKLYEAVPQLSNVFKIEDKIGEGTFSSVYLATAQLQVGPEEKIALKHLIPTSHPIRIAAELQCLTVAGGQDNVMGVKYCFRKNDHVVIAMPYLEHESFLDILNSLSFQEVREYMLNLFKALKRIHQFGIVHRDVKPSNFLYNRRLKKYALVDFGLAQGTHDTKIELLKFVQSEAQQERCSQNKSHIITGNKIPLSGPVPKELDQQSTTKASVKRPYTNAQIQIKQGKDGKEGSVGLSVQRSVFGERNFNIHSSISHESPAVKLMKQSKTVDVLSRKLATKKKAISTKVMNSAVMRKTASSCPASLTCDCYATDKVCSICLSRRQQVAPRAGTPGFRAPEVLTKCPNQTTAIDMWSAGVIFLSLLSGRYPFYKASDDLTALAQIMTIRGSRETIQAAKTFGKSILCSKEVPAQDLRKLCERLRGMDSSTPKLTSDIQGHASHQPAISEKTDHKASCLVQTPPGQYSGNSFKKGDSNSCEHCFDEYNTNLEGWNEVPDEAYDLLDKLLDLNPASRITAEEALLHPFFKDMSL

[12] = molecular target: Vascular endothelial growth factor receptor 1 (Homo sapiens, UniProt P17948); format: functional;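 note: measured within a kinome-wide profiling panel, FLT1 as the panel member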
[13] = molecular target: Mitogen-activated protein kinase kinase kinase kinase 2 (Homo sapiens, UniProt Q12851); format: functional;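 note: measured as one member of a kinome-wide kinase panel, with MAP4K2 as the panel entry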
Chain of Mitogen-activated protein kinase kinase kinase kinase 2 (Q12851 whole entry): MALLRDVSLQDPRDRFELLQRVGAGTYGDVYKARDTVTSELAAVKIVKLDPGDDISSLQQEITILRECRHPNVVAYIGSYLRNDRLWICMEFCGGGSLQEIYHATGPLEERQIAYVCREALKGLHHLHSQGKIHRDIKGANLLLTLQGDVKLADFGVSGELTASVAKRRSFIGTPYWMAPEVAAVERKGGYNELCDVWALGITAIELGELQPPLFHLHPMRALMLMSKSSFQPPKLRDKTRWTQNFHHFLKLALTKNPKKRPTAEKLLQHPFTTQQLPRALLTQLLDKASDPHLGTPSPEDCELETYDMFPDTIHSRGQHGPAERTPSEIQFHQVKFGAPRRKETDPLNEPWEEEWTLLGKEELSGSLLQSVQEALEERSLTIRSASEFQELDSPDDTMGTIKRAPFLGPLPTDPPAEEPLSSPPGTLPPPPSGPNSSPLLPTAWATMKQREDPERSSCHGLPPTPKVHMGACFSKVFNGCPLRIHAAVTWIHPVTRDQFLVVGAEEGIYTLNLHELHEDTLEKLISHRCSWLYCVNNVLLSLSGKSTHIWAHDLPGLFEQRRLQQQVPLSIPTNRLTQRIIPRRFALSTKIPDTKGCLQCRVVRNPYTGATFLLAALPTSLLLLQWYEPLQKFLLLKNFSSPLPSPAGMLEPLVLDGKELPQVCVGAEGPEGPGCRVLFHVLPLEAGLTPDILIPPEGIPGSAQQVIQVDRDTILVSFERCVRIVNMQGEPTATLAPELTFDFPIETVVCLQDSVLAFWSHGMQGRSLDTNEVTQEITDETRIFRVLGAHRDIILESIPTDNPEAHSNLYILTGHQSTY

[14] = molecular target: T2, Sentrin-specific protease 8 (Homo sapiens, UniProt Q96LD8); format: functional;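 note: kinetic enzyme assay of SENP8 cleaving a Nedd8 protein substrate, dose-response confirmation of screening hits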
T2 sequence (Q96LD8 whole entry): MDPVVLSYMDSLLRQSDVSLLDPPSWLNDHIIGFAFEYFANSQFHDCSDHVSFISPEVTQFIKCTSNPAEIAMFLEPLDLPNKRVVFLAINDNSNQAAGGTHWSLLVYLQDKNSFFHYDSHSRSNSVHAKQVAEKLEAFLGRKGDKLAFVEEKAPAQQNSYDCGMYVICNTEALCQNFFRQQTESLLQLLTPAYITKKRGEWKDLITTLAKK

[15] = molecular target: Intestinal-type alkaline phosphatase (Homo sapiens, UniProt P09923); assay: activation of human intestinal alkaline phosphatase – biochemical, dose response (AID 488873); format: functional
Paired box protein Pax-8 = Paired box protein Pax-8 (Homo sapiens, UniProt Q06710); assay: PAX8 transcriptional activity inhibition in RMG-I – RMG-I cells, luciferase, cherry-pick, dose response (AID 687027); format: functional, cell-based;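 note: luciferase reporter driven by Pax8 target thyroperoxidase promoter measured by SteadyGlo luminescence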
CHO = CHO cell viability loss, potency – luminescence, cytotoxicity control for TLR9-MyD88 binding inhibitor project, dose response (AID 588339); format: functional, cell-based, hamster; details: Cricetulus griseus;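 note: CHO cells stably coexpressing TLR9 and MyD88 fusions from primary screen; compound exposure lasted 48 hours before viability readout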
Genome polyprotein = Genome polyprotein (dengue virus type 2, UniProt P29990); assay: flavivirus cap methylation enzyme inhibition – biochemical, confirmation dose response, primary screen (AID 588689); format: functional
Chain of Genome polyprotein (P29990 2492-3391 limits assumed): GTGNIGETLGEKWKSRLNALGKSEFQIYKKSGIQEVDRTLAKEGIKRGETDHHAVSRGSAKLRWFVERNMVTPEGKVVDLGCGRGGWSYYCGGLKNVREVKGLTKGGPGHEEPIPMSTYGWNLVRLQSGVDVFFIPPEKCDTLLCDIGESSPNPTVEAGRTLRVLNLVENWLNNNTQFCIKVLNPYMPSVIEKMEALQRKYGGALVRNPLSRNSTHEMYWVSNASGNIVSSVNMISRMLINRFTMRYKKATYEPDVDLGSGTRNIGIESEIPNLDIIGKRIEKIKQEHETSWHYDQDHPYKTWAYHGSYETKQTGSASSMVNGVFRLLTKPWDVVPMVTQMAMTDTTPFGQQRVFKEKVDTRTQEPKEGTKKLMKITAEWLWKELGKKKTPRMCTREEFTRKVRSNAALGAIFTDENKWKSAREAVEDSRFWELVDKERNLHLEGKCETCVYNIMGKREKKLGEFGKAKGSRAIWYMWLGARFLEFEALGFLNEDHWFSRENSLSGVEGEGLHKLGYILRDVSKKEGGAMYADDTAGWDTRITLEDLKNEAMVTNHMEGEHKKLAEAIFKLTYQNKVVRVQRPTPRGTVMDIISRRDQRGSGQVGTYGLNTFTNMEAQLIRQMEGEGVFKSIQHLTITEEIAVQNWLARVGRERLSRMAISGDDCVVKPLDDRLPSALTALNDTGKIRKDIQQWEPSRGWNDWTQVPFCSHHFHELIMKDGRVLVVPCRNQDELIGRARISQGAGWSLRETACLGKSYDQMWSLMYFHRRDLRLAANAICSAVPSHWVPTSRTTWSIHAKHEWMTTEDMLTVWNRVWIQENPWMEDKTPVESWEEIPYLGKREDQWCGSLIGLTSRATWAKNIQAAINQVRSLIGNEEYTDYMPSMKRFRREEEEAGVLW

SMILES: Cc1ccc(NC2=C/C(=N\S(=O)(=O)c3cccs3)c3ccccc3C2=O)c(C)c1
EC50 [1]: 1080 nM (active)

Ki [2]: 12.6 nM (active)
Ki [3]: 1260 nM (active)
Ki [4]: 200 nM (active)
Ki [5]: 126 nM (active)
Ki [6]: 126 nM (active)
Ki [7]: 2000 nM (active)
Ki [8]: 158 nM (active)
Ki [9]: 20 nM (active)
Ki [10]: 158 nM (active)
Ki [11]: 126 nM (active)
Ki [12]: 10 nM (active)
Ki [13]: 7.94 nM (active)
SMILES: O=C1Nc2ccc3ncsc3c2C1=CNc1ccc(S(=O)(=O)Nc2ccccn2)cc1

SMILES: COc1ccc(/C=N/NC(=O)c2nn(-c3ccccc3)c(=O)c3c(N)scc23)cc1
IC50 [14]: 415 nM (active)

SMILES: Oc1ccc(-c2cn3c(n2)SCC3)cc1O
EC50 [15]: 22100 nM (active)

SMILES: CC(=O)N(C1=C(Cl)C(=O)c2ccccc2C1=O)C1CCCCC1
AC50 (Paired box protein Pax-8): 2740 nM (active)
IC50 (CHO): 802 nM (active)
IC50 (Genome polyprotein): 38300 nM (active)
